# Experimental data from US9409905B2, “Antibacterial compounds and methods for use” (PTC THERAPEUTICS, INC., priority 2011, dated 2016).
# Tests used:
# [1] = system: Klebsiella pneumoniae (K. pneumoniae) 35657; test: Antibacterial activity, MIC (Table 4); format: cell-based; conditions: K. pneumoniae 35657, read-out: MIC, 35657
# Summary of the method: (§1)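 Broth microdilution; MIC (μg/mL) = lowest concentration with no macroscopically visible growth. Resistant strains: multi-drug resistant clinical isolates.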
# [2] = system: Acinetobacter baumannii (A. baumannii) BAA747; test: Antibacterial activity, MIC (Table 4); format: cell-based; conditions: A. baumannii BAA747, read-out: MIC, BAA747
# Summary of the method: as §1
# [3] = system: Pseudomonas aeruginosa (P. aeruginosa) 27853; test: Antibacterial activity, MIC (Table 5); format: cell-based; conditions: P. aeruginosa 27853, read-out: MIC, 27853
# Summary of the method: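 Compounds are serially diluted in broth and inoculated with the organism. Growth is then inspected macroscopically, and the lowest concentration showing none is taken as the MIC (μg/mL).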
# [4] = system: E. coli 25922; test: Antibacterial activity, microbroth dilution MIC (Table 1); format: cell-based, Escherichia coli; conditions: Escherichia coli; microbroth dilution; control Gram-negative E. coli 25922 strain; read-out: MIC, 25922
# Summary of the method: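 Values are MICs (μg/mL): the smallest drug amount at which macroscopically visible bacterial growth is absent under assay conditions, from a microdilution method in broth.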
# [5] = system: Staphylococcus aureus (S. aureus) 29213; test: as above; format: cell-based; conditions: microbroth dilution, Gram-positive S. aureus 29213, read-out: MIC, 29213
# Summary of the method: (§2)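 Potency is reported as minimum inhibitory concentration in μg/mL, determined by broth microdilution as the lowest level of compound that stops growth visible to the eye.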
# [6] = system: Escherichia coli (E. coli) BAS849; test: as above; format: cell-based; conditions: microbroth dilution, super sensitive Gram-negative E. coli BAS849, read-out: MIC, BAS849
# Summary of the method: as §2
# [7] = system: A. baumannii MXX2240; test: Antibacterial activity, MIC, resistant strain (Table 4); format: cell-based; conditions: Acinetobacter baumannii, MXX2240; resistant A. baumannii MMX2240, multi-drug resistant clinical isolate; read-out: MIC, MMX2240
# Summary of the method: as §1
# [8] = system: K. pneumoniae MXX1232; test: as above; format: cell-based; conditions: Klebsiella pneumoniae, MXX1232; resistant K. pneumoniae MMX1232, multi-drug resistant clinical isolate; read-out: MIC, MMX1232
# Summary of the method: as §1
# [9] = system: E. coli ELZ4251; test: Antibacterial activity, MIC, multi-drug resistant clinical isolate (Table 3); format: cell-based; conditions: Escherichia coli
# Summary of the method: (§3)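 Microbroth dilution. Endpoint: absence of macroscopically visible growth. Value = MIC, μg/mL.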
# [10] = system: E. coli ELZ4000; test: as above; format: cell-based; conditions: Escherichia coli, ELZ4000, read-out: MIC ELZ4000
# Summary of the method: as §3
# [11] = system: Haemophilus influenzae (H. influenzae) 49247; test: Antibacterial activity, MIC (Table 6); format: cell-based
# From the text: (§4) The antibacterial activity from a microbroth dilution method may be presented as the minimum inhibitory concentration (MIC in μg/mL). The MIC value is the lowest concentration of drug which prevents macroscopically visible growth under test conditions.
# (§5) Antibacterial activity of test compounds against the Gram-negative bacteria Haemophilus influenzae (H. influenzae) 49247 is shown in Table 6, Moraxella catarrhalis (M. catarrhalis) 25238 is shown in Table 7 and Neisseria meningitidis (N. meningitidis) 13090 is shown in Table 8.
# [12] = system: E. coli LZ3111; test: Antibacterial activity, MIC, quinolone resistant strain (Table 2); format: cell-based; conditions: Escherichia coli, LZ3111, read-out: MIC LZ3111
# Summary of the method: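 Strain carries mutations conferring high-level quinolone resistance; tested by microbroth dilution, MIC recorded in μg/mL as lowest concentration preventing visible growth.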
# [13] = system: Neisseria meningitidis (N. meningitidis) 13090; test: Antibacterial activity, MIC (Table 8); format: cell-based
# From the text: as §4, §5
# [14] = system: Moraxella catarrhalis (M. catarrhalis) 25238; test: Antibacterial activity, MIC (Table 7); format: cell-based
# From the text: as §4, §5
Structure (SMILES),MIC [1],MIC [2],MIC [3],MIC [4],MIC [5],MIC [6],MIC [7],MIC [8],MIC [9],MIC [10],MIC [11],MIC [12],MIC [13],MIC [14]
"CCc1cc(C(=O)O)c(=O)[nH]c1-c1ccc2c(ccn2C)c1 [Cpd 21, 5-ethyl-6-(1-methyl-1H-indol-5-yl)-2-oxo-1,2-dihydropyridine-3-carboxylic acid]",< 1 µg/mL,< 1 µg/mL,12.5 to 150 µg/mL,< 1 µg/mL,3.5 to 12.5 µg/mL,< 1 µg/mL,12.5 to 150 µg/mL,12.5 to 150 µg/mL,12.5 to 150 µg/mL,12.5 to 150 µg/mL,< 1 µg/mL,12.5 to 150 µg/mL,< 1 µg/mL,
"CCc1c(-c2ccc3c(c2)CCN3C)[nH]c(=O)c(C(=O)O)c1O [Cpd 6, 5-ethyl-4-hydroxy-6-(1-methylindolin-5-yl)-2-oxo-1,2-dihydropyridine-3-carboxylic acid]",12.5 to 150 µg/mL,1 to 3.5 µg/mL,12.5 to 150 µg/mL,3.5 to 12.5 µg/mL,3.5 to 12.5 µg/mL,< 1 µg/mL,1 to 3.5 µg/mL,12.5 to 150 µg/mL,12.5 to 150 µg/mL,12.5 to 150 µg/mL,< 1 µg/mL,12.5 to 150 µg/mL,< 1 µg/mL,
"CCc1c(-c2ccc3c(c2)cc(C)n3C)[nH]c(=O)c(C(=O)O)c1O [Cpd 38, 6-(1,2-dimethyl-1H-indol-5-yl)-5-ethyl-4-hydroxy-2-oxo-1,2-dihydropyridine-3-carboxylic acid]",,,,1 to 3.5 µg/mL,1 to 3.5 µg/mL,< 1 µg/mL,,,12.5 to 150 µg/mL,12.5 to 150 µg/mL,< 1 µg/mL,12.5 to 150 µg/mL,< 1 µg/mL,
"CCc1c(-c2ccc3c(c2)cc(CNC)n3C)[nH]c(=O)c(C(=O)O)c1O [Cpd 203, 5-ethyl-4-hydroxy-6-(1-methyl-2-((methylamino)methyl)-1H-indol-5-yl)-2-oxo-1,2-dihydropyridine-3-carboxylic acid]",,< 1 µg/mL,1 to 3.5 µg/mL,< 1 µg/mL,3.5 to 12.5 µg/mL,< 1 µg/mL,3.5 to 12.5 µg/mL,12.5 to 150 µg/mL,1 to 3.5 µg/mL,3.5 to 12.5 µg/mL,< 1 µg/mL,1 to 3.5 µg/mL,< 1 µg/mL,< 1 µg/mL
"CCc1c(-c2ccc3c(c2)CCCN3C)[nH]c(=O)c(C(=O)O)c1O [Cpd 2, 5-ethyl-4-hydroxy-6-(1-methyl-1,2,3,4-tetrahydroquinolin-6-yl)-2-oxo-1,2-dihydropyridine-3-carboxylic acid]",,,,12.5 to 150 µg/mL,3.5 to 12.5 µg/mL,< 1 µg/mL,,,,,< 1 µg/mL,,< 1 µg/mL,
"CCc1cc(C(=O)O)c(=O)[nH]c1-c1ccc2c(c1)CCN2C [Cpd 5, 5-ethyl-6-(1-methylindolin-5-yl)-2-oxo-1,2-dihydropyridine-3-carboxylic acid]",3.5 to 12.5 µg/mL,1 to 3.5 µg/mL,12.5 to 150 µg/mL,3.5 to 12.5 µg/mL,12.5 to 150 µg/mL,< 1 µg/mL,12.5 to 150 µg/mL,12.5 to 150 µg/mL,12.5 to 150 µg/mL,12.5 to 150 µg/mL,< 1 µg/mL,12.5 to 150 µg/mL,< 1 µg/mL,
"CCc1c(-c2ccc3c(c2)cc(CO)n3C)[nH]c(=O)c(C(=O)O)c1O [Cpd 40, 5-ethyl-4-hydroxy-6-(2-(hydroxymethyl)-1-methyl-1H-indol-5-yl)-2-oxo-1,2-dihydropyridine-3-carboxylic acid]",,1 to 3.5 µg/mL,3.5 to 12.5 µg/mL,1 to 3.5 µg/mL,1 to 3.5 µg/mL,< 1 µg/mL,3.5 to 12.5 µg/mL,12.5 to 150 µg/mL,3.5 to 12.5 µg/mL,12.5 to 150 µg/mL,< 1 µg/mL,3.5 to 12.5 µg/mL,< 1 µg/mL,
"CCc1cc(C(=O)O)c(=O)[nH]c1-c1ccc2c(cnn2C)c1 [Cpd 41, 5-ethyl-6-(1-methyl-1H-indazol-5-yl)-2-oxo-1,2-dihydropyridine-3-carboxylic acid]",12.5 to 150 µg/mL,12.5 to 150 µg/mL,12.5 to 150 µg/mL,3.5 to 12.5 µg/mL,12.5 to 150 µg/mL,< 1 µg/mL,12.5 to 150 µg/mL,12.5 to 150 µg/mL,12.5 to 150 µg/mL,12.5 to 150 µg/mL,< 1 µg/mL,12.5 to 150 µg/mL,< 1 µg/mL,
